Like-named read-outs stand apart in the source and are kept apart here. Where a SMILES comes first, the peptide text is derived from it. [ ]: non-standard residue; d: D form. N(2-ethylhexyl)Gly = CCCCC(CC)CNCC(=O)O; Gly(N-dodecyl) = CCCCCCCCCCCCNCC(=O)O; N(CH(CH2OH)2)Gly = O=C(O)CNC(CO)CO; N(octyl)Gly = CCCCCCCCNCC(=O)O; NDecylGly = CCCCCCCCCCNCC(=O)O
What was measured:
[1] = Particle size and polydispersity (PDI) of delivery vehicles by dynamic light scattering; assay type: physicochemical; conditions: Table 5; delivery vehicle comprising the peptoid, Formulation D22, fLuc mRNA
Outline: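 Delivery vehicle complexes were diluted in PBS to 2 ng/μL and measured by DLS. The cumulant fit of the correlation function gave PDI and hydrodynamic diameter in nm.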

[2] = Percent encapsulated mRNA, RiboGreen assay; assay type: physicochemical; conditions: Table 5; delivery vehicle comprising the peptoid, Formulation D22, fLuc mRNA
Outline: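 Modified RiboGreen fluorescence assay on Fluc mRNA formulations diluted to 500 ng/ml in Tris-EDTA. Samples were read with and without Triton X-100 lysis (2% for 10 min in one protocol). Percent encapsulation was derived from the fluorescence ratio of intact versus lysed particles.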

[3] = Zeta potential of delivery vehicles; assay type: physicochemical; conditions: Table 5; delivery vehicle, pH 7 buffer; in mV (unit assumed)
Method: In one particular instance, the size and polydispersity (PDI) of delivery vehicles was measured by dynamic light scattering in PBS using a DynaPro® plate reader III. The zeta potential of delivery vehicles was determined using Nano-ZS™ particle analyzer. Zeta sample was diluted to 30 uM total lipid in a weakly buffered solution of 10 mM HEPES, 10 mM MES, 10 mM ammonium acetate pH 7. Measurements were collected in duplicate for over 30 run with the voltage manually set to […]

[4] = Apparent particle pKa, TNS fluorescence assay; assay type: physicochemical; conditions: Table 5; apparent particle pKa of delivery vehicle
Method: The apparent particle pKa was assessed by a TNS fluorescence assay. Briefly, particles were diluted to 130 uM total lipid in TNS buffer ranging in pH 3-11 for 10 minutes with […] of TNS probe. The fluorescence was measured at room temperature in a plate reader ex 320/em 445. Fluorescence intensity was normalized to the minimal and maximal values and the pKa was determined by a 3 parameter fit to determine the half maximum of the curve.

[5] = RBC hemolysis as metric for fusogenicity; assay type: cell-based; conditions: sheep red blood cells (RBCs), 5% v/v, Table 5, delivery vehicle, 37° C. 45 min
Outline: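 Sheep RBCs at 5% v/v in 20 mM citrate/140 mM NaCl pH 5.5 or PBS, exposed to LNPs at […] in well, 37 °C for 45 min. Supernatant absorbance at 425 nm; % hemolysis normalized to 2% Triton full lysis and buffer-only control.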

[6] = system: BALB/c mice; assay: In vivo fLuc mRNA expression after IV dose, whole body and organ bioluminescence; conditions: BALB/c mice, IV, luminescence 6 hours after dose, lipid block screen
Description: In one particular instance, peptoids disclosed herein were formulated into delivery vehicles by first dissolving in ethanol along with DSPC, cholesterol, and DMG-PEG2000 at weight ratio of 20:1.8:7.2:1.8 (Formulation D22 in Table 3, above), then mixed with firefly luciferase (fLuc) mRNA dissolved in an aqueous buffer at a volume ratio of 1:3 via microfluidic nanoprecipitation on a turbulent mixing device, resulting in small, low dispersity particles. Physical particle properties were characterized. Delivery vehicles with initial sizes larger than 120 nm were not brought forward into in vivo screening as liver fenestrae primarily accommodate LNPs sized under 100 nm. In vivo expression of delivery vehicles comprising peptoids with varied headgroups was evaluated using fLuc expression in BALB/c mice 6 hours after IV dose (FIG. 1). […] The aminoethyl and aminopropyl headgroups both show preferential expression in lung (FIG. 2), potentially due to the high basicity of the pendant primary amine, as groups with higher pKas are known to accumulate in that organ. […] While spleen and lung selectivity merit further optimization for future therapeutic applications, liver-selective targets were used for further studies herein to prepare for systemic delivery of antibody targets and maximize their serum expression with anti-RSV cargo.
Intravenous administration. The delivery vehicle complexes disclosed herein are effective for in vivo administration of Fluc mRNA to BALB/c mice through multiple routes of administration. In general, delivery system complexes were administered at a dose of 0.5 mg/kg via a tail-vein injection, and the resulting bioluminescence was quantified after 6 hours. Organ-specific bioluminescence was quantified by sacrificing the treated animal, dissecting out the organs of interest, and separately quantifying the resulting bioluminescence
In one particular instance, to investigate how the peptoid lipid block impacts in vivo expression, delivery vehicles with diameter larger than 120 nm were excluded and remaining candidates were administered IV to BALB/c mice. Luminescence was measured after 6 hours and the resulting expression in liver, lung and spleen were quantified. Even without changing the cationic headgroup, luciferase expression spanned 4 orders of magnitude as a result of altering the lipid block in this series. […] In vivo expression of all candidates was then fit to a multi-parameter model containing the 4 input parameters to understand the individual contributions of each factor to overall performance. […] Contour plots of the impact of these factors on expression (all using Ehx as the branched/unsaturated monomer) are shown in FIG. 4.
For imaging studies, female BALB/c mice (6-8 weeks old) were obtained and acclimatized for a minimum of 3 days prior to experiments. The animals were maintained on a 12 hour light cycle in a temperature and humidity controlled room. A daily health check was performed as well as food and water check. For dosing, mice were injected with 2.5 μg fLuc mRNA-containing delivery vehicles intravenously in 100 μL total injection volume. At 6 hours post-injection, mice were anesthetized with isoflurane, and injected intraperitoneally with 30 mg/mL D-luciferin at a dose of 10 μL per gram bodyweight intraperitoneally. Imaging was done 10 minutes post D-luciferin injection using an IVIS® Spectrum Imaging System. Immediately after in vivo imaging, mice were terminally bled by cardiac puncture and euthanized. The organs of interest were harvested, placed in black 24-well plates, and imaged. Living Image® software was used to quantify the total photon flux in regions of interest. For secreted protein studies, mice were injected with aRSV mRNA-containing delivery vehicles intravenously in 100 μL total injection volume. Mice were euthanized after 24 hours, with serum collection at 6 and 24 hours post-injection. […]

[7] = pH 5, read-out: Hemolysis at pH 5
[8] = pH 7, read-out: Hemolysis at pH 7

SMILES	PDI [1]	Particle Size (nm) [1] [nm]	% Encapsulation [2] [%]	Zeta Potential [3]	pKa (TNS) [4]	hemolysis at 45 min, 150 mM total lipid [5, 7] [%]	hemolysis at 45 min, 150 mM total lipid [5, 8] [%]	fLuc (luciferase) expression in vivo [6]
CCCCCCCCCCN(CC(=O)N(CCCCCCCCCC)CC(=O)N(CC(=O)N(CCCCCCCCCC)CC(=O)N(CCCCCCCCCC)CC(=O)N(CC(N)=O)CC(CC)CCCC)CC(CC)CCCC)C(=O)CNC(CO)CO (centres unmarked) [Compound 29] (H-[N(CH(CH2OH)2)Gly][NDecylGly][NDecylGly][N(2-ethylhexyl)Gly][NDecylGly][NDecylGly][N(2-ethylhexyl)Gly]-NH2)	0.094	92.7	81.9	−7.04	6.044	4.8	1.3	
CCCCCCCCCCCCN(CC(=O)N(CCCCCCCCCCCC)CC(=O)N(CC(=O)N(CCCCCCCCCCCC)CC(=O)N(CCCCCCCCCCCC)CC(=O)N(CC(N)=O)CC(CC)CCCC)CC(CC)CCCC)C(=O)CNC(CO)CO (centres unmarked) [Compound 30] (H-[N(CH(CH2OH)2)Gly][Gly(N-dodecyl)][Gly(N-dodecyl)][N(2-ethylhexyl)Gly][Gly(N-dodecyl)][Gly(N-dodecyl)][N(2-ethylhexyl)Gly]-NH2)	0.097	82.6	87.7	−1.41	6.084	17.3	2.1	
CCCCCCCCCCCCN(CC(=O)N(CCCCCCCCCCCC)CC(=O)N(CCCCCCCC)CC(=O)N(CCCCCCCCCCCC)CC(=O)N(CCCCCCCCCCCC)CC(=O)N(CCCCCCCC)CC(N)=O)C(=O)CNC(CO)CO [Compound 33] (H-[N(CH(CH2OH)2)Gly][Gly(N-dodecyl)][Gly(N-dodecyl)][N(octyl)Gly][Gly(N-dodecyl)][Gly(N-dodecyl)][N(octyl)Gly]-NH2)	1	165.8	−1.8	−2.12	5.935	0.9	0.4	
CCCCCCCCCCCCN(CC(=O)N(CC(N)=O)CC(CC)CCCC)C(=O)CN(CCCCCCCC)C(=O)CN(CC(CC)CCCC)C(=O)CN(CCCCCCCCCCCC)C(=O)CN(CCCCCCCC)C(=O)CNC(CO)CO (centres unmarked) [Compound 35] (H-[N(CH(CH2OH)2)Gly][N(octyl)Gly][Gly(N-dodecyl)][N(2-ethylhexyl)Gly][N(octyl)Gly][Gly(N-dodecyl)][N(2-ethylhexyl)Gly]-NH2)	0.082	90.7	76.1	−5.88	5.937	4.5	5.1	top expressers
CCCCCCCCCCN(CC(N)=O)C(=O)CN(CCCCCCCCCC)C(=O)CN(CCCCCCCCCC)C(=O)CN(CCCCCCCCCC)C(=O)CNC(CO)CO [Compound 37]	Multimodal	181.4	56.4	−0.676	6.418	7.8	23.9	
CCCCCCCCCCCCN(CC(N)=O)C(=O)CN(CC(CC)CCCC)C(=O)CN(CCCCCCCCCCCC)C(=O)CN(CCCCCCCCCCCC)C(=O)CN(CC(CC)CCCC)C(=O)CN(CCCCCCCCCCCC)C(=O)CNC(CO)CO (centres unmarked) [Compound 40] (H-[N(CH(CH2OH)2)Gly][Gly(N-dodecyl)][N(2-ethylhexyl)Gly][Gly(N-dodecyl)][Gly(N-dodecyl)][N(2-ethylhexyl)Gly][Gly(N-dodecyl)]-NH2)	Multimodal	270.5	55.9	−7.48	4.883	0.5	-0.1	
CCCCCCCC/C=C\CCCCCCCCN(CC(=O)N(CCCCCCCC)CC(=O)N(CCCCCCCC/C=C\CCCCCCCC)CC(=O)N(CCCCCCCC)CC(N)=O)C(=O)CNC(CO)CO [Compound 44]	0.194	98.1	76.4	2.39	6.936	51.6	95.8	

Source: patent publication US20260083769A1, “2-Aminopropane-1,3-Diol-Capped Cationic Peptoids for Nucleic Acid Delivery” (NUTCRACKER THERAPEUTICS, INC., priority 2022, published 2026)
